Laboratory results taken from patent US20120316158A1, “OPHTHALMIC SOLUTION FOR TREATING OCULAR INFECTION COMPRISING LEVOFLOXACIN OR SALT THEREOF OR SOLVATE OF THE SAME, METHOD FOR TREATING OCULAR INFECTION, LEVOFLOXACIN OR SALT THEREOF OR SOLVATE OF THE SAME, AND USE THEREOF” (priority 2010, published 2012).

Assays:
[1] = system: methicillin-sensitive Staphylococcus aureus; conditions: isolates from a patient suffering from bacterial keratitis; cited from earlier work
[2] = system: MSSA; assay: MIC of clinical isolate from a patient suffering from an external ocular infection; assay type: cell-based; conditions: Staphylococcus aureus; MSSA clinical isolate from a patient with an external ocular infection
Protocol: MSSA (MIC=0.5 μg/mL with respect to levofloxacin) was isolated from a patient suffering from an external ocular infection.

- MIC [2]: 0.5 µg/mL
Compound: C[C@H]1COc2c(N3CCN(C)CC3)c(F)cc3c(=O)c(C(=O)O)cn1c23 [levofloxacin, Levofloxacin]
- clinically isolated MSSA resistant to levofloxacin [1]: about 10%
